Data from the supplement of paper PMC4862054.

Assays:
Settings in all cases: incubation time: 72 h
[1] = tested on: BT-474; assay: drug sensitivity score (DSS), CellTiter-Glo (DSS (AUC-based score)); higher = stronger drug effect (viability inhibition or cytotoxicity); extreme values may be limits of the assay
How it was run: (§1)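 Normalisation on every plate relied on 0.1 % DMSO and a positive kill control. The plates, 384-well format, held compound at 5 concentrations 10-fold apart across a compound-specific 10,000-fold range, and breast cancer cell lines in 20 µl suspension were incubated on them for 72 h before CellTox Green and then CellTiter-Glo readings. The drug sensitivity score derives from the area under the fitted dose-response curve.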

[2] = tested on: BT-549; assay: as above
How it was run: as §1

[3] = tested on: CAL-120; assay: as above
How it was run: as §1

[4] = tested on: CAL-51; assay: as above
How it was run: as §1

[5] = tested on: CAL-85-1; assay: as above
How it was run: as §1

[6] = tested on: DU-4475; assay: as above
How it was run: as §1

[7] = tested on: HCC1143; assay: as above
How it was run: as §1

[8] = tested on: HCC1937; assay: as above
How it was run: as §1

[9] = tested on: HDQ-P1; assay: as above
How it was run: as §1

[10] = tested on: Hs578T; assay: as above
How it was run: as §1

[11] = tested on: MCF-10A; assay: as above
How it was run: as §1

[12] = tested on: MDA-MB-231; assay: as above
How it was run: as §1

[13] = tested on: MDA-MB-436; assay: as above
How it was run: as §1

[14] = tested on: MDA-MB-453; assay: as above
How it was run: as §1

[15] = tested on: MDA-MB-468; assay: as above
How it was run: as §1

[16] = tested on: MFM-223; assay: as above
How it was run: as §1

[17] = tested on: SK-BR-3; assay: as above
How it was run: as §1

[18] = tested on: BT-474; assay: drug sensitivity score (DSS), CellTox Green (DSS (AUC-based score)); higher = stronger drug effect (viability inhibition or cytotoxicity); extreme values may be limits of the assay
How it was run: as §1

[19] = tested on: BT-549; assay: as above
How it was run: as §1

[20] = tested on: CAL-120; assay: as above
How it was run: as §1

[21] = tested on: CAL-148; assay: as above
How it was run: as §1

[22] = tested on: HCC1599; assay: as above
How it was run: as §1

[23] = tested on: HDQ-P1; assay: as above
How it was run: as §1

[24] = tested on: Hs578T; assay: as above
How it was run: as §1

[25] = tested on: MDA-MB-436; assay: as above
How it was run: as §1

[26] = tested on: MDA-MB-453; assay: as above
How it was run: as §1

[27] = tested on: MFM-223; assay: as above
How it was run: as §1

Compound	drug sensitivity score [1]	drug sensitivity score [2]	drug sensitivity score [3]	drug sensitivity score [4]	drug sensitivity score [5]	drug sensitivity score [6]	drug sensitivity score [7]	drug sensitivity score [8]	drug sensitivity score [9]	drug sensitivity score [10]	drug sensitivity score [11]	drug sensitivity score [12]	drug sensitivity score [13]	drug sensitivity score [14]	drug sensitivity score [15]	drug sensitivity score [16]	drug sensitivity score [17]	drug sensitivity score [18]	drug sensitivity score [19]	drug sensitivity score [20]	drug sensitivity score [21]	drug sensitivity score [22]	drug sensitivity score [23]	drug sensitivity score [24]	drug sensitivity score [25]	drug sensitivity score [26]	drug sensitivity score [27]
CN(C)/N=N/c1[nH]cnc1C(N)=O [Dacarbazine]	0	0	0.483	0	0	0	0	0	0	0	0	0	0	0	0	0	0	0	0	0	2.9	0	0	0	0	0	0
Cn1c(Nc2ccc(C(F)(F)F)cc2)nc2cc(Oc3ccnc(-c4ncc(C(F)(F)F)[nH]4)c3)ccc21 [RAF265]	0.538	1.66	3.6	0	1.63	1.18	0	1.88	5.82	2.49	0	0	2.94	0	4.79	2.07	0	0	9.17	0	0	0	0	0	0	0	2.58
CS(=O)(=O)c1ccc(C2=C(c3ccccc3)C(=O)OC2)cc1 [Rofecoxib]	0	0	0	0.464	0	0	0	0	0	0	0	0	0	0	0	0	0	1.58	0	0	0	0	0	0	0	0	0
CCCCCCCCCCCCCCCCCCOP(=O)([O-])OC1CC[N+](C)(C)CC1 [Perifosine]	0	0	0	0	0	0	0	0.853	0	0	0.579	0	0.0848	0	0	0	0	0	0	0	0	0	0	0	0	0	0
O=C(CCCCCCC(=O)Nc1ccc([C@H]2O[C@@H](CSc3nc(-c4ccccc4)c(-c4ccccc4)o3)C[C@@H](c3ccc(CO)cc3)O2)cc1)NO [Tubacin]	4.89	2.95	4.36	5.04	7.14	1.66	3.15	3.76	2.55	0	0	6.83	0	8.42	8.6	4.83	1.97	1.77	0	0	0	0	0	0.503	0	1.38	0
C#Cc1cccc(Nc2ncnc3cc(OCCOC)c(OCCOC)cc23)c1 [Erlotinib]	0	0	0.577	2.18	7.99	0	0	0	9.11	0	16.3	0	0.203	0	0	0	2.74	0.507	0	0	0	0	0	0	0	0	0
Oc1nc(-c2ccc(C(F)(F)F)cc2)nc2c1CSCC2 [XAV-939]	3.54	0	0	8.6	0	0	0	0	0	0	0	2.7	0	0.956	0.9	0	0	0	0	0	0	0	3.77	3.23	0	0	0
